In paper PMC5464911, “SEL120-34A is a novel CDK8 inhibitor active in AML cells with high levels of serine phosphorylation of STAT1 and STAT5 transactivation domains” (Oncotarget, 2017):

Columns and labels:
SKM-1 = test: Extended viability test (AlamarBlue); format: cell-based; conditions: Homo sapiens, extended viability assay
RNAP II CTD S2 and S5 = test: RNAP II CTD phosphorylation in HCT-116 cells (WB); format: cell-based; conditions: SEL120-34A up to 2.5 μM
Experimental: 0,1% SDS; 20 mM β-glicerol phosphate; 5 mM NaF; cat. # sc835), α-STAT5-pS726 (1:1000; Abcam, cat. # 1 mM Na3VO4) supplemented with protease inhibitors ab128896), α-STAT5-pY694 (1:1000; Cell Signaling, (Santa Cruz Biotechnology). Tumor samples were cat. #C11C5), α-tubulin (1:4000; Sigma, cat. # T5192) homogenized in 15 sec intervals and kept on ice between and β-actin (1:4000, Sigma cat. # A2066) or GAPDH homogenization cycles. Protein concentration in lysates (1:20000; Sigma, cat. # G9545) was measured by the Bradford assay and adjusted to achieve the same final concentration in each well (20-30 mRNA extraction from xenograft tissue μg protein/well). […] A scoop Unless indicated otherwise, membranes were blocked of a tumor (~25mg) was homogenized with a pestle for 45 min with 2% fat-free dried milk (Rovema, Poland) under liquid nitrogen and immediately processed in Tris-buffered saline (TBS) + 0.05% Tween (TBST), according to the RNeasy Mini Kit protocol (Qiagen). incubated overnight at 4°C with primary antibodies diluted The RNA concentration was measured by a NanoDrop into 2% milk in TBST and washed four times for 10 min spectrophotometer and stored at -80°C for downstream with TBST. […]
with the activities of CDK9 in cells. […] Protein levels of RNAP II CTD pS2, pS5, cMYC and GAPDH were measured by WB.

MV4-11 tumors = test: MV4-11 AML xenograft; format: in vivo, SCID mice
Experimental: (§1) Figure 9 SEL120-34A inhibits growth of AML tumors in a dose- dependent manner (A) Volume kinetic of KG-1 tumors and (B) MV4-11 tumors grown subcutaneously in SCID mice, treated orally with vehicle (water) or indicated doses of SEL120-34A once every day. Changes in animals’ body weights are shown in the inset; n=8, SD is shown. (C) Levels of total STAT1, STAT3 and STAT5 and phosphorylated […], Y701, STAT3 S727, Y705, STAT5 726, Y694 were analyzed in KG-1 tumors from control (vehicle) and SEL120-34A treated animals at day 23. (D) Levels of total on STAT5 and phosphorylated STAT5 S726, Y694, MCL-1, PARP and Cleaved PARP, total RNAPII and phosphorylated RNAPII CTD S2 were analyzed in MV4-11 tumors from control (vehicle) and SEL120-34A treated animals at day 17.
(§2) All animals were handled in strict accordance with good animal practice as defined by the relevant national and local animal welfare bodies. Animals, SCID/beige C.B17 female mice were provided by Harlan Laboratories or Charles River Laboratories, and were maintained in pathogen free conditions.
(§3) Mice were inoculated subcutaneously (sc) above the groin on the right hind limb with 4×10^6 MV-4-11 or KG-1 leukemia cells, 5×10^6 Colo-205 CRC cells in a 0.1 ml mixture (3:1, v:v) of PBS and Matrigel (BD Biosciences, Growth Factor Reduced, Phenol Red-free; #356231). Once tumors reached a mean volume of approximately 100 mm^3 for tumor growth assessment or 250mm^3 for pharmacodynamics assessment, the mice were then randomly divided into uniform groups followed by compound or vehicle administration. Prior to use, the test compound was dissolved freshly in water at indicated doses and administered per os (PO) using cannula in a volume of 10 μl per 1 g of body weight. After the last administration, mice were subjected to anesthesia for blood collection, and sacrificed for tumor collection.

CDK19/CycC = CDK19/CycC (Homo sapiens, UniProt Q9BWU1); test: Radiometric protein kinase assay (PanQinase, ProQinase)
Chain of CDK19/CycC (Q9BWU1 whole entry): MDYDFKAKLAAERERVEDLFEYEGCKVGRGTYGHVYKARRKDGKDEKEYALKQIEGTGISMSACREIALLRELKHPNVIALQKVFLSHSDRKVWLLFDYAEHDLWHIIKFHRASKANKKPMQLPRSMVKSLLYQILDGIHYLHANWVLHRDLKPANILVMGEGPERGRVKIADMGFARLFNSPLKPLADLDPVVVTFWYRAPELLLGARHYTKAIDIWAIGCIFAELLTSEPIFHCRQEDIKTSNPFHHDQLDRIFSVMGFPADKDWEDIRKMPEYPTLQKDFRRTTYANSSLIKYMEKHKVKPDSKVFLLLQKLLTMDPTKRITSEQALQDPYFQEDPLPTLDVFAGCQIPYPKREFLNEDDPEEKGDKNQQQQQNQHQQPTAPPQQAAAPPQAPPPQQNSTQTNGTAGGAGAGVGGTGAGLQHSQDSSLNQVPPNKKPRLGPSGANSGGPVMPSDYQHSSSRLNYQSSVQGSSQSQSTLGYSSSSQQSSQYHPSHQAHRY
Chain of CDK19/CycC (P24863 whole entry partner): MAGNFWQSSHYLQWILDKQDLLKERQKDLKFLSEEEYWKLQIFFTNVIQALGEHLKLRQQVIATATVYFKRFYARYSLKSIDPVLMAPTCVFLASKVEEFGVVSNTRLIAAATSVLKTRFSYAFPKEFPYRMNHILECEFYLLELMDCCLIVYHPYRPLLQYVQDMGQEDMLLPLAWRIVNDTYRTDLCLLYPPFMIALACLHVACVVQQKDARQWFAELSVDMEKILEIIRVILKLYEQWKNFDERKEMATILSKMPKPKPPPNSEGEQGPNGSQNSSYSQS

KG-1 tumors = test: KG-1 AML xenograft; format: in vivo, SCID mice
Experimental: as §1, §2, §3

Cc1c(Br)c(Br)c2c3c1nc(N1CCNCC1)n3CCC2 [SEL120-34A]
GI50 (SKM-1): 1900 nM
RNAP II CTD phosphorylation at S2 and S5 (RNAP II CTD S2 and S5): not affected
body weight (MV4-11 tumors; MV4-11 xenograft, oral once every day): without appreciable loss in body weight
MCL-1 in MV4-11 tumors (MV4-11 tumors; oral once every day, day 17): repression
STAT5 S726 and total STAT5 levels in MV4-11 tumors (MV4-11 tumors; oral once every day, day 17): repressed
phosphorylation levels of RNAPII CTD S2 in MV4-11 tumors (MV4-11 tumors; oral once every day, day 17): without any appreciable reduction
volume of MV4-11 tumors (MV4-11 tumors; oral, once every day): reduced volume
IC50 (CDK19/CycC): 10.4 nM
body weight (KG-1 tumors; KG-1 xenograft, oral once every day): without appreciable loss in body weight
STAT1 S726 in KG-1 tumors (KG-1 tumors; oral once a day, day 23): unaffected
STAT5 S726 in KG-1 tumors (KG-1 tumors; oral once a day, day 23): dose-dependent inhibition
growth of KG-1-derived tumors (KG-1 tumors; oral, once every day): completely arrested growth
